According to US5863889A, “ICAM-1/LFA-1 short-chain peptides and method of using same” (The University of Kansas, priority 1996, dated 1999):

Experiments:
Molt3 cells [1] = experiment: Homotypic adhesion assay (MDHC-induced clumping of T-cells); type: cell-based, human; settings: 10 μM MDHC, listed as LJCRF-2
LFA-1 (CD11a) = biological target: T1, LFA-1 (CD11a) (Homo sapiens, UniProt P20701); experiment: Antibody binding assay (FACS): anti-LFA-1 mAb (mouse IgG anti-human CD11a) binding to Molt3 T-cells after peptide incubation; type: cell-based; settings: for Fluorescence, % change from control of the medium fluorescence intensity: mAb CD11a, average ± standard error of runs
T1 construct: host or cells: Molt3 human T-cell leukemia line
T1 sequence (P20701 26-1170): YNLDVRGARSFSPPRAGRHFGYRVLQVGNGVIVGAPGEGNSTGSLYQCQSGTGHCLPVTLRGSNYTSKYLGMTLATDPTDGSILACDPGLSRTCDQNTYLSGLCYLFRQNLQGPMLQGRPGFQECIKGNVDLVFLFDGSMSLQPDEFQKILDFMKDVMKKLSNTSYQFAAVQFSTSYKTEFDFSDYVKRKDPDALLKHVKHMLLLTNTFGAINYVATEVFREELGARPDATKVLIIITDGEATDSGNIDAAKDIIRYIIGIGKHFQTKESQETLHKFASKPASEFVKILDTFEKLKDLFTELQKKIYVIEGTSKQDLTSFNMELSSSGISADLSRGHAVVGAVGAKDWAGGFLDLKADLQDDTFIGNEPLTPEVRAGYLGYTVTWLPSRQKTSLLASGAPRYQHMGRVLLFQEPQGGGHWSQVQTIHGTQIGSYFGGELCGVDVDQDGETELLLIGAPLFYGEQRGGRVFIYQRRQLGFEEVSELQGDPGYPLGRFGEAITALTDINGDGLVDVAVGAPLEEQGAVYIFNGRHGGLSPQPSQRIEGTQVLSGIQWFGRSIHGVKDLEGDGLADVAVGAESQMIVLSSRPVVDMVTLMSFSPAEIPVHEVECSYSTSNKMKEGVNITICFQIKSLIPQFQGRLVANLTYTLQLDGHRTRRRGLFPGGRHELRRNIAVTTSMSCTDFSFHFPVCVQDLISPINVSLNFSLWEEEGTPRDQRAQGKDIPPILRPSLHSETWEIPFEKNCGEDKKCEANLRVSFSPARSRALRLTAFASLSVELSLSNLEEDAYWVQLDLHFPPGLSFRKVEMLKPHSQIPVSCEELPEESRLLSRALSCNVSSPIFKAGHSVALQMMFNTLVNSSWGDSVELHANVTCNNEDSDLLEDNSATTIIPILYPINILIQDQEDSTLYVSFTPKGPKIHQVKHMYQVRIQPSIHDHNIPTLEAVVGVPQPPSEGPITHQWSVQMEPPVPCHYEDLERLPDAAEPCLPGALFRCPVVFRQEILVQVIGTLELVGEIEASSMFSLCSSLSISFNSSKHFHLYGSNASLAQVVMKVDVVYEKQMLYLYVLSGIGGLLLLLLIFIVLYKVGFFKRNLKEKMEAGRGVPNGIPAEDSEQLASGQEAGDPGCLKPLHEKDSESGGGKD
T1 sequence (P05107 23-769 partner): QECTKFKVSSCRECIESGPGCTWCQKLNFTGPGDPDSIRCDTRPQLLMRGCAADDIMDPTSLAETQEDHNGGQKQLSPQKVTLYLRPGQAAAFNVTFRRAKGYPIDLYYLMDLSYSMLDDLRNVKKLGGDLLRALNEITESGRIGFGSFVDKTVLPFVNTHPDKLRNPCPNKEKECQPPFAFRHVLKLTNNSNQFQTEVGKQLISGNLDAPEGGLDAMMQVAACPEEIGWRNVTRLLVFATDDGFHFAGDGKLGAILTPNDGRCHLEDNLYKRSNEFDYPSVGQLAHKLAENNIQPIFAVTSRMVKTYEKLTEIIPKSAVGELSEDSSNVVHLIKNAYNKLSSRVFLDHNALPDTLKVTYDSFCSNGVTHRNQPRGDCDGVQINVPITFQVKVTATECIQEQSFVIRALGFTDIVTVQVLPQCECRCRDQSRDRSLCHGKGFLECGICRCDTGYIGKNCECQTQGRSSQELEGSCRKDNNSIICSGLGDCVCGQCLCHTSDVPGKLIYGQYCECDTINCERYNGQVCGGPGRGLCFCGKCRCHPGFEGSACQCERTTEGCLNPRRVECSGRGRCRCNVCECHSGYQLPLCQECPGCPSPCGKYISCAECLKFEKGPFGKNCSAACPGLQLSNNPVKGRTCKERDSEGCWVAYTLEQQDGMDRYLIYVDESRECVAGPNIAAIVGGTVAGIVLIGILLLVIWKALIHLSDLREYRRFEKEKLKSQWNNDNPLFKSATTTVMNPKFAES
Procedure: A 1 ml quantity of the Molt3 inoculum was warmed to 37° C. and transferred by pipette into about 25 ml of a growth culture medium including RPMI 1640 lymphocyte growth medium (Fisher Scientific of St. Louis, Miss.) mixed with 10% by volume fetal calf serum, 100 units/ml penicillin, 100 μg/ml streptomycin and 2 mM glutamine. The inoculated culture was incubated for three to four days at 37° C. under a normal atmosphere having about 5% CO2 added thereto. This culture was capable of being maintained indefinitely by siphoning away the top (non-cell containing) layer and adding 50 ml (or more) of growth culture medium at intervals of three to four days.
An aqueous buffer solution including Dulbecco's phosphate buffered saline and bovine serum albumin ("-PBS/BSA solution") was prepared for use, and included a mixture of 200 mg KH2 PO4, 1.15 g Na2 HPO4, 100 mg CaCl2, 200 mg KCl, 100 mg MgCl2.6H2 O, 8 g NaCl, with distilled water added to a final 1 liter volume at room temperature, thus, forming a "PBS" solution of pH 7.4 to which was added 0.5% by weight bovine serum albumin.
An aliquot of about 7 ml was removed from the incubated culture medium and subjected to washing with the PBS/BSA solution. The washing procedure was initiated by placing the aliquot in a centrifuge (Model GT422 from Jouan, distributed Piruscio & Assoc. of Manchester, Miss.) at 1400 rpm for 6.5 minutes to separate the cells from the growth medium. The supernatant fluid was decanted, a 5 ml portion of PBS/BSA solution was transferred by pipette into the pellet, and the mixture was again centrifuged as before. The resulting supernatant fluid was decanted and the cells from the pellet were resuspended in PBS/BSA solution at a titer of about 1×10^6 cells/ml. A 500 μl portion of the solution containing the resuspended cells was placed in a microcentrifuge (Marathon 13K/M from Fisher Scientific of St. Louis, Miss.) at 3500 rpm for six minutes, to provide a washed pellet.
[…] The cells were incubated with the peptide cocktail at 37° C. for 45 minutes.
After incubation with the peptide cocktail, several antibodies were successively mixed into the incubated solution. A 75 μl portion of anti-IgM solution (a mixture of 10 μl of goat anti-human IgM stock purchased from Jackson Immuno Research of Westgrove, Pa.; and 65 μl of PBS/BSA solution) was added to the peptide cocktail for blocking of nonspecific binding of the secondary antibody. The resulting mixture was incubated for 10 minutes on ice. About 0.1 μg of a primary antibody including mouse IgG anti-human CD11a (purified according to conventional protocols at the University of Kansas Department of Pharmacology and Toxicology from an American Type Culture hybridoma cell line having Catalogue Number HB-202) was next stirred into the mixture, which was then incubated for 30 minutes at room temperature. The incubated mixture was placed in a microcentrifuge at 3500 rpm for six minutes to remove the cells from the mixture, and the cell pellet was washed two times by adding 500 μl aliquots of PBS/BSA solution and microfuging to remove non-bound antibodies from the cells as before. The resulting washed pellet was resuspended in 100 μl of a secondary antibody cocktail including 5 μl of fluorescein isothiocyanate ("FITC") labeled goat anti-mouse IgG (from CALTAG of South San Francisco, Calif.) and 95 μl of PBS/BSA solution. The resulting solution was incubated for 30 minutes at room temperature in the dark.
The incubated solution including the secondary antibody cocktail was microfuged at 3500 rpm for six minutes to remove the cells from the solution, and the cell pellet was washed two times with 500 μl portions of PBS/BSA solution, as before, to remove unbound antibodies. […]

Molt3 cells [2] = experiment: Homotypic adhesion assay (MDHC-induced clumping of T-cells); type: cell-based, human; design: key to Homotypic Adhesion Amount: Any sample having a score of "+++" or "++++" is considered to have a significant ability to modulate T-cell binding interaction; Any sample having a score of "+++" or "++++" is considered to have a significant ability to modulate T-cell binding interaction; settings: 10 μM MDHC
Procedure: As before, the T-cells were Molt3 cells prepared in RPMI 1640 growth medium according to Example 2. An approximate 7 ml aliquot of the growth medium was centrifuged (Jouan Model GT422 at 1400 rpm for 6.5 minutes), and the supernatant fluid was decanted. The pellet was resuspended in the supernatant fluid at titer of about 1×10^6 cells/ml, with the excess supernatant fluid being retained for future resuspension of the peptides.
A 228 nmol quantity of the LJCRF-1 (Sequence ID No. 6) peptide described in Table 1 was diluted with the supernatant fluid to a 500 μl final volume, and filtered in microcentrifuge filter tubes (0.22 micron filter; 3500 rpm for 6 minutes). Serial dilution of the filtered peptide with supernatant fluid was conducted to yield five 125 μl peptide solutions to give respective concentrations of about 115 μM, 230 μM, 460 μM, 910 μM, and 1.82 mM. At each concentration, a 125 μl portion of the cell suspension was pipetted into each 125 μl portion of the peptide solutions to yield combined samples having a 250 μl volume. The 250 μl samples were seeded into individual wells in a 48-well tissue culture grade plate (from Costar of Cambridge, Md.) and incubated at 37° C. for 30 minutes. Each sample received 5 μl of 2,5-methyl dihydroxy cinnamate ("MDHC") for a 10 μM final concentration, and was subsequently incubated for about 10 hours at 37° C. MDHC induces intercellular clumping of human T-cells (Tibbetts, Butler, and Benedict, submitted) by activating the LFA/ICAM binding interaction between respective cells.
Pictures were taken of five random fields per sample using an Olympus photomicroscope having a 0.8 mm field at 400×magnification, and a 3.2 mm field of view at 100×magnification. The amount of clumping observed was quantified by determining the mean number of clumps per field ± a standard error.
FIGS. 5, 6, and 7 replicate photographs taken from exemplary peptide assays. FIG. 5 is a photograph of the control sample having no peptides and no MDHC added, from which essentially no clumping of cells is observed. […] Any sample having a score of "+++" or "++++" is considered to have a significant ability to modulate T-cell binding interaction. This is similar to results obtained by incubating similarly treated cells with antibody against either LFA or ICAM.
The homotypic adhesion assay assesses the actual ability of a candidate peptide to modulate the ability of T-cells to adhere with one another.

Molt3 cells [3] = experiment: Cell metabolic assay (MTT); type: cell-based
Procedure: After taking the photographs in Example 3 (and in some instances no photographs were taken), cell metabolic activity was assessed by an MTT assay. A 37.5 μl portion of MTT dye (purchased from SIGMA of St. Louis, Mo.), i.e., 3-[4,5-dimethyl thiazole-2yl]-2, 5- diphenyl tetrazolium bromide; thiazolyl blue) was added to each well, and incubated with the cells at 37° C. for about six hours. After incubation, a 250 μl quantity of a MTT solubilization solution (of a type that may be purchased from either Fischer Scientific of St. Louis, Mo. or BCD Labs of Lawrence, Kans.) was added to each well, and incubated with the cells at room temperature overnight. In the morning, the spectrophotometric absorption of each plate was determined at 570 nm in a microplate ELISA reader manufactured by Cambridge Technologies of Water-town, Mass., in order to assess cell viability as an indicator of potential peptide toxicity.

SC-3-152: ICAM-derived short-chain peptide, Sequence ID No. 11; modulator peptide (DQPKLLGIETPLPKKELLLPGNNRK)
Homotypic Adhesion Effect (Molt3 cells [1]; peptide 460 μM): binding enhancers
Homotypic Adhesion Effect (Molt3 cells [1]; peptide 910 μM): blockers of intercellular adhesion
Fluorescence, % change from control of the medium fluorescence intensity (LFA-1 (CD11a); peptide 2275 μM): +48 ± 8%
Fluorescence, % change from control of the medium fluorescence intensity (LFA-1 (CD11a); peptide 4550 μM, negative = blocking): -43 ± 7%
effect on antibody binding (LFA-1 (CD11a); peptide 2275 μM): enhance such binding
effect on antibody binding (LFA-1 (CD11a); peptide 4550 μM): block antibody binding
Homotypic Adhesion Amount (Molt3 cells [2]; peptide 230 μM): +++
Homotypic Adhesion Effect (Molt3 cells [2]; peptide 230 μM): Enhance
Homotypic Adhesion Effect (Molt3 cells [2]; peptide 460 μM): Enhance
Homotypic Adhesion Amount (Molt3 cells [2]; peptide 910 μM): +++
Homotypic Adhesion Effect (Molt3 cells [2]; peptide 910 μM): Block
Homotypic Adhesion Amount (Molt3 cells [2]; peptide 1820 μM): ++++
Homotypic Adhesion Effect (Molt3 cells [2]; peptide 1820 μM): Block
MTT % Viability (Molt3 cells [3]; concentration not given): 38%
MTT % Viability (Molt3 cells [3]; peptide 230 μM): 38%
MTT % Viability (Molt3 cells [3]; peptide 460 μM): 38%
MTT % Viability (Molt3 cells [3]; peptide 910 μM): 38%
MTT % Viability (Molt3 cells [3]; peptide 1820 μM): 43%
